Experimental data: ChEMBL document CHEMBL1201862, “PubChem BioAssay data set” (2004)
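Step 1: Grow cells in 96-well plates. Step 2: Expose to compound for 48 hours at 5 concentrations. Step 3: Interpolate endpoints linearly; if unreached, use highest concentration. Here, GI50 denotes the concentration required for 50% inhibition of growth.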 Activity calls are given as the source filed them. Rule as the data show it: active = GI50 up to about 1.1 µM and inactive = higher.

Tests used:
Experiment in all cases: NCI anticancer screen, dose series, 48 h
RPMI-8226 = tested on: RPMI-8226
MDA-N = tested on: MDA-N
MDA-MB-231 = tested on: MDA-MB-231
COLO 205 = tested on: COLO 205
SK-OV-3 = tested on: SK-OV-3
PC-3 = tested on: PC-3
RXF 393 = tested on: RXF 393
SK-MEL-2 = tested on: SK-MEL-2
DMS-114 = tested on: DMS-114
CAKI-1 = tested on: CAKI-1
SR = tested on: SR
DU-145 = tested on: DU-145
UACC-257 = tested on: UACC-257
KM-20L2 = tested on: KM-20L2
SN12C = tested on: SN12C
UACC-62 = tested on: UACC-62
SF-268 = tested on: SF-268
SK-MEL-28 = tested on: SK-MEL-28
OVCAR-4 = tested on: OVCAR-4
NCI-H522 = tested on: NCI-H522
HCT-15 = tested on: HCT-15
A498 = tested on: A498
CCRF-CEM = tested on: CCRF-CEM
HCC 2998 = tested on: HCC 2998
XF498 = tested on: XF498
HOP-62 = tested on: HOP-62
A549 = tested on: A549
SNB-78 = tested on: SNB-78
MCF7 = tested on: MCF7
HOP-18 = tested on: HOP-18
KM12 = tested on: KM12
SK-MEL-5 = tested on: SK-MEL-5
HT-29 = tested on: HT-29
IGROV-1 = tested on: IGROV-1
DMS-273 = tested on: DMS-273
NCI/ADR-RES = tested on: NCI/ADR-RES
M19-MEL = tested on: M19-MEL
HCT-116 = tested on: HCT-116
K562 = tested on: K562
BT-549 = tested on: BT-549
NCI-H460 = tested on: NCI-H460
OVCAR-3 = tested on: OVCAR-3
M14 = tested on: M14
NCI-H226 = tested on: NCI-H226
UO-31 = tested on: UO-31
TK-10 = tested on: TK-10
T47D = tested on: T47D
LXFL 529 = tested on: LXFL 529
Hs-578T = tested on: Hs-578T
OVCAR-8 = tested on: OVCAR-8
786-0 = tested on: 786-0
SF-539 = tested on: SF-539
SNB-75 = tested on: SNB-75
HOP-92 = tested on: HOP-92
EKVX = tested on: EKVX
NCI-H23 = tested on: NCI-H23
Malme-3M = tested on: Malme-3M
DLD-1 = tested on: DLD-1
HL-60 = tested on: HL-60
LOX IMVI = tested on: LOX IMVI
SNB-19 = tested on: SNB-19
ACHN = tested on: ACHN
SF-295 = tested on: SF-295
OVCAR-5 = tested on: OVCAR-5
MDA-MB-435 = tested on: MDA-MB-435
SW-620 = tested on: SW-620
U-251 = tested on: U-251
MOLT-4 = tested on: MOLT-4

In the case of `C=C(CN(C)C)C(=O)c1ccc(OC)cc1`, the GI50 (RPMI-8226) is reported as 2.11 µM (inactive), the GI50 (MDA-N) is reported as 7.46 µM (inactive) and the GI50 (MDA-MB-231) is reported as 11.6 µM (inactive). The GI50 (COLO 205) was 0.326 µM (active), the GI50 (SK-OV-3) was 24.7 µM (inactive) and the GI50 (PC-3) was 15.2 µM (inactive). The GI50 (RXF 393) was 10 µM (inactive), the GI50 (SK-MEL-2) was 4.61 µM (inactive) and the GI50 (DMS-114) was 3.7 µM (inactive). The GI50 (CAKI-1) was 1.5 µM (inactive), the GI50 (SR) was 1.05 µM (active) and the GI50 (DU-145) was 4.97 µM (inactive). For the same compound, the GI50 (UACC-257) was 5.31 µM (inactive), the GI50 (KM-20L2) was 5.13 µM (inactive) and the GI50 (SN12C) was 2.48 µM (inactive). The GI50 (UACC-62) was 9.33 µM (inactive), the GI50 (SF-268) was 6.05 µM (inactive) and the GI50 (SK-MEL-28) was 3.49 µM (inactive). The GI50 (OVCAR-4) was 5.26 µM (inactive), the GI50 (NCI-H522) was 0.267 µM (active) and the GI50 (HCT-15) was 1.76 µM. For the same compound, the GI50 (A498) was 9.79 µM (inactive), the GI50 (CCRF-CEM) was 0.186 µM (active) and the GI50 (HCC 2998) was 14.2 µM (inactive). For the same compound, the GI50 (XF498) was 1.93 µM (inactive), the GI50 (HOP-62) was 21.7 µM (inactive) and the GI50 (A549) was 18.2 µM (inactive). For the same compound, the GI50 (SNB-78) was 2.36 µM (inactive), the GI50 (MCF7) was 2.77 µM (inactive) and the GI50 (HOP-18) was 3.78 µM (inactive). The GI50 (KM12) was 14.5 µM (inactive), the GI50 (SK-MEL-5) was 8.24 µM (inactive) and the GI50 (HT-29) was 5.71 µM (inactive). For the same compound, the GI50 (IGROV-1) was 10.7 µM (inactive), the GI50 (DMS-273) was 3.8 µM (inactive) and the GI50 (NCI/ADR-RES) was 8.32 µM (inactive). The GI50 (M19-MEL) was 2.07 µM (inactive), the GI50 (HCT-116) was 1.58 µM (inactive) and the GI50 (K562) was 0.622 µM (active). The GI50 (BT-549) was 6.56 µM (inactive), the GI50 (NCI-H460) was 21.8 µM (inactive) and the GI50 (OVCAR-3) was 2.77 µM (inactive). The GI50 (M14) was 2.5 µM (inactive), the GI50 (NCI-H226) was 6.76 µM (inactive) and the GI50 (UO-31) was 2.55 µM (inactive). The GI50 (TK-10) was 2.24 µM (inactive), the GI50 (T47D) was 0.881 µM (active) and the GI50 (LXFL 529) was 1.69 µM (inactive). The GI50 (Hs-578T) was 15.5 µM (inactive), the GI50 (OVCAR-8) was 1.07 µM (active) and the GI50 (786-0) was 1.72 µM (inactive). For the same compound, the GI50 (SF-539) was 4.1 µM (inactive), the GI50 (SNB-75) was 15.5 µM (inactive) and the GI50 (HOP-92) was 1.32 µM (inactive). For the same compound, the GI50 (EKVX) was 18.7 µM (inactive), the GI50 (NCI-H23) was 7.4 µM (inactive) and the GI50 (Malme-3M) was 1.48 µM (inactive). The GI50 (DLD-1) was 0.427 µM (active), the GI50 (HL-60) was 0.198 µM (active) and the GI50 (LOX IMVI) was 4.49 µM (inactive). For the same compound, the GI50 (SNB-19) was 20 µM (inactive), the GI50 (ACHN) was 1.12 µM (active) and the GI50 (SF-295) was 28.5 µM (inactive). For the same compound, the GI50 (OVCAR-5) was 13.6 µM (inactive), the GI50 (MDA-MB-435) was 10.5 µM (inactive) and the GI50 (SW-620) was 0.771 µM (active). The GI50 (U-251) was 10.3 µM (inactive) and the GI50 (MOLT-4) was 0.52 µM (active).
